Reference: PubChem BioAssay AID330 (DTP/NCI, 2004)
Values joined by “and” are separate entries in the source; they are usually repeats but may differ in a detail not shown here. Equal entries are not always repeated. Toxic doses and inconclusive results are not listed.

Tested on: P388 leukemia ip, CD2F1 mice, survival T/C
Test: NCI In Vivo Anticancer Drug Screen. Data for tumor model P388 Leukemia (intraperitoneal) in CD2F1 (CDF1) mice
Conditions: endpoint: median survival time, higher = longer survival
Summary of the method: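 Mice carrying the transplanted tumor received test compound or vehicle. Survival was recorded in each group, and the value is the treated-group measurement divided by that of the vehicle-treated control group.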

[1] = dose: 25.0 mg/kg/injection, schedule: Q01DX009 (ip), vehicle: distilled water + Tween-80
[2] = dose: 50.0 mg/kg/injection, schedule: Q01DX009 (ip), vehicle: distilled water + Tween-80
[3] = dose: 200.0 mg/kg/injection, schedule: Q01DX009 (ip), vehicle: distilled water + Tween-80
[4] = dose: 50.0 mg/kg/injection, schedule: Q01DX005 (ip), vehicle: saline with Tween-80
[5] = dose: 100.0 mg/kg/injection, schedule: Q01DX005 (ip), vehicle: saline with Tween-80
[6] = dose: 200.0 mg/kg/injection, schedule: Q01DX005 (ip), vehicle: saline with Tween-80
[7] = dose: 60.0 mg/kg/injection, schedule: Q01DX005 (ip), vehicle: saline with Tween-80
[8] = dose: 120.0 mg/kg/injection, schedule: Q01DX005 (ip), vehicle: saline with Tween-80
[9] = dose: 240.0 mg/kg/injection, schedule: Q01DX005 (ip), vehicle: saline with Tween-80
[10] = dose: 50.0 mg/kg/injection, schedule: Q01DX005 (ip), vehicle: saline
[11] = dose: 100.0 mg/kg/injection, schedule: Q01DX005 (ip), vehicle: saline
[12] = dose: 200.0 mg/kg/injection, schedule: Q01DX005 (ip), vehicle: saline
[13] = dose: 25.0 mg/kg/injection, schedule: Q01DX005 (ip), vehicle: Klucel (hydroxypropylcellulose) (HPC)
[14] = dose: 50.0 mg/kg/injection, schedule: Q01DX005 (ip), vehicle: Klucel (hydroxypropylcellulose) (HPC)
[15] = dose: 100.0 mg/kg/injection, schedule: Q01DX005 (ip), vehicle: Klucel (hydroxypropylcellulose) (HPC)
[16] = dose: 200.0 mg/kg/injection, schedule: Q01DX005 (ip), vehicle: Klucel (hydroxypropylcellulose) (HPC)
[17] = dose: 12.5 mg/kg/injection, schedule: Q01DX009 (ip), vehicle: saline with Tween-80
[18] = dose: 12.5 mg/kg/injection, schedule: Q01DX005 (ip), vehicle: Klucel (hydroxypropylcellulose) (HPC)

CC1CCC23COC(=O)C2=CCCC3C12CC(c1ccoc1)OC2=O (stereo not drawn)
T/C (dose: 0.03 mg/kg/injection, schedule: Q01DX009 (ip), vehicle: saline): 107 % of control
T/C (dose: 0.06 mg/kg/injection, schedule: Q01DX009 (ip), vehicle: saline): 104 % of control
T/C (dose: 0.12 mg/kg/injection, schedule: Q01DX009 (ip), vehicle: saline): 107 % of control
T/C (dose: 0.24 mg/kg/injection, schedule: Q01DX009 (ip), vehicle: saline): 103 % of control
T/C (dose: 0.5 mg/kg/injection, schedule: Q01DX009 (ip), vehicle: Klucel (hydroxypropylcellulose) (HPC)): 96 % of control
T/C (dose: 1.0 mg/kg/injection, schedule: Q01DX009 (ip), vehicle: Klucel (hydroxypropylcellulose) (HPC)): 96 % of control
T/C (dose: 2.0 mg/kg/injection, schedule: Q01DX009 (ip), vehicle: Klucel (hydroxypropylcellulose) (HPC)): 98 % of control

CC12CCC(CC1=O)C2(C)CC#N (stereo not drawn)
T/C (dose: 7.5 mg/kg/injection, schedule: Q01DX005 (ip), vehicle: saline): 101 % of control
T/C (dose: 15.0 mg/kg/injection, schedule: Q01DX005 (ip), vehicle: saline): 100 % of control

CCCCCCCCOC(=O)c1[nH]cnc1/N=N\N(C)C
T/C (dose: 100.0 mg/kg/injection, schedule: Q04DX003 (ip), vehicle: Klucel (hydroxypropylcellulose) (HPC)): 109 % of control
T/C (dose: 200.0 mg/kg/injection, schedule: Q04DX003 (ip), vehicle: Klucel (hydroxypropylcellulose) (HPC)): 113 % of control
T/C (dose: 400.0 mg/kg/injection, schedule: Q04DX003 (ip), vehicle: Klucel (hydroxypropylcellulose) (HPC)): 104 % of control

FC(F)(F)c1cccc(NC(=S)SCc2ccc(Cl)c(Cl)c2)c1
T/C (dose: 12.5 mg/kg/injection, schedule: Q01DX009 (ip), vehicle: saline): 95 % of control
T/C (dose: 25.0 mg/kg/injection, schedule: Q01DX009 (ip), vehicle: saline): 89 % of control
T/C (dose: 50.0 mg/kg/injection, schedule: Q01DX009 (ip), vehicle: saline): 90 % of control
T/C (dose: 50.0 mg/kg/injection, schedule: Q01DX009 (ip), vehicle: suspension in saline): 89 % of control
T/C (dose: 100.0 mg/kg/injection, schedule: Q01DX009 (ip), vehicle: saline): 90 % of control
T/C (dose: 200.0 mg/kg/injection, schedule: Q01DX009 (ip), vehicle: saline): 100 % of control
T/C (dose: 200.0 mg/kg/injection, schedule: Q01DX009 (ip), vehicle: suspension in saline): 97 % of control

COc1cccc2c1C(=O)c1c(O)c3c(c(O)c1C2=O)C[C@@](O)(C(C)=O)CC3OC1CC(NC(=O)C(C)N)C(O)C(C)O1 (stereo partly drawn)
T/C (dose: 6.25 mg/kg/injection, schedule: Q04DX003 (ip), vehicle: saline): 108 % of control
T/C (dose: 12.5 mg/kg/injection, schedule: Q04DX003 (ip), vehicle: saline): 115 % of control
T/C (dose: 50.0 mg/kg/injection, schedule: Q04DX003 (ip), vehicle: saline): 150 % of control

O=C(Nc1cccc2ccccc12)c1cc2c(cc1Br)OCO2
T/C (dose: 12.5 mg/kg/injection, schedule: Q01DX009 (ip), vehicle: distilled water + Tween-80): 104 % of control
T/C [1]: 95 % of control
T/C [2]: 92 % of control
T/C [3]: 90 % of control

OCC(O)C(O)CO (stereo not drawn)
T/C [4]: 98 % of control
T/C [5]: 104 % of control
T/C [6]: 104 % of control

COc1ccc2c(c1)C=CC1OC(C(C)=O)(C(C)=O)C(C=O)=CN21 (stereo not drawn)
T/C [7]: 92 % of control
T/C [8]: 89 % of control
T/C [9]: 98 % of control

O=S(=O)(Nc1ccn(-c2ccccc2)n1)c1ccc(NCc2c3ccccc3nc3cc(Cl)ccc23)cc1
T/C [7]: 99 % of control
T/C [8]: 91 % of control
T/C [9]: 93 % of control

COC(=O)C1C(Sc2ccccc2)CCN1C(C)=O (stereo not drawn)
T/C [10]: 88 % of control
T/C [11]: 88 % of control
T/C [12]: 88 % of control

Cc1ncc(CSC(=N)N)n1Cc1ccccc1
T/C (dose: 8.5 mg/kg/injection, schedule: Q01DX009 (ip), vehicle: saline): 115 % of control

CC(=O)OC1C(OC(=O)c2ccccc2)C=CC2OC21COC(=O)c1ccccc1 (stereo not drawn)
T/C (dose: 25.0 mg/kg/injection, schedule: Q01DX005 (ip), vehicle: saline + alcohol): 97 % of control
T/C (dose: 50.0 mg/kg/injection, schedule: Q01DX005 (ip), vehicle: saline + alcohol): 105 % of control
T/C (dose: 100.0 mg/kg/injection, schedule: Q01DX005 (ip), vehicle: saline + alcohol): 98 % of control
T/C (dose: 200.0 mg/kg/injection, schedule: Q01DX005 (ip), vehicle: saline + alcohol): 91 % of control

Cc1ccc(O)c(C(=NCCN=C(c2ccccc2)c2cc(C)ccc2O)c2ccccc2)c1.[Cu]
T/C [13]: 98 % of control
T/C [14]: 98 % of control
T/C [15]: 96 % of control
T/C [16]: 90 % of control

CCOC(=O)[C]1([Pb]([CH3])([CH3])[CH3])N=NC(C(=O)OC)=C1C(=O)OC (stereo not drawn)
T/C (dose: 0.78 mg/kg/injection, schedule: Q01DX009 (ip), vehicle: saline): 89 % of control
T/C (dose: 1.56 mg/kg/injection, schedule: Q01DX009 (ip), vehicle: saline): 90 % of control
T/C (dose: 3.12 mg/kg/injection, schedule: Q01DX009 (ip), vehicle: saline): 90 % of control

CC(=O)CC(=O)c1ccccc1.CC(=O)CC(=O)c1ccccc1.[Ni]
T/C (dose: 3.0 mg/kg/injection, schedule: Q01DX009 (ip), vehicle: saline with Tween-80): 106 % of control
T/C (dose: 6.0 mg/kg/injection, schedule: Q01DX009 (ip), vehicle: saline with Tween-80): 98 % of control
T/C (dose: 12.0 mg/kg/injection, schedule: Q01DX009 (ip), vehicle: saline with Tween-80): 99 % of control
T/C [17]: 91 % of control
T/C (dose: 24.0 mg/kg/injection, schedule: Q01DX009 (ip), vehicle: saline with Tween-80): 99 % of control

O=C(O)/C(Cl)=C(Cl)\C=N\c1ncn[nH]1
T/C (dose: 6.25 mg/kg/injection, schedule: Q01DX005 (ip), vehicle: Klucel (hydroxypropylcellulose) (HPC)): 104 % of control
T/C [18]: 100 % of control
T/C [13]: 112 % of control

CC(=O)NCc1ccccc1N1CCCC1
T/C (dose: 100.0 mg/kg/injection, schedule: Q04DX003 (ip), vehicle: saline): 101 % of control
T/C (dose: 200.0 mg/kg/injection, schedule: Q04DX003 (ip), vehicle: saline): 106 % of control
T/C (dose: 400.0 mg/kg/injection, schedule: Q04DX003 (ip), vehicle: saline): 101 % of control

CCC1(c2ccccc2)C(C#N)C(=O)NC(=O)C1C#N (stereo not drawn)
T/C [7]: 106 % of control
T/C [8]: 99 % of control
T/C [9]: 101 % of control

O=C1c2ccccc2C(=O)N1/N=[N+](\[O-])N1Cc2ccccc2C1
T/C [13]: 97 % of control
T/C [14]: 101 % of control
T/C [15]: 99 % of control
T/C [16]: 99 % of control

C/C=C/COc1cc2c(cc1C(C)c1ccc(OC)cc1)OCO2 (stereo not drawn)
T/C [4]: 107 % of control
T/C [5]: 106 % of control
T/C [6]: 119 % of control

Nc1nccc(Cl)n1
T/C (dose: 6.25 mg/kg/injection, schedule: Q01DX009 (ip), vehicle: saline with Tween-80): 98 % of control
T/C [17]: 100 % of control
T/C (dose: 25.0 mg/kg/injection, schedule: Q01DX009 (ip), vehicle: saline with Tween-80): 100 % of control
T/C (dose: 50.0 mg/kg/injection, schedule: Q01DX009 (ip), vehicle: saline with Tween-80): 100 % of control

C/C(=N\NC(=S)N1CCN(c2cnccn2)CC1)c1ccccn1
T/C (dose: 3.75 mg/kg/injection, schedule: Q01DX005 (ip), vehicle: saline with Tween-80): 120 % of control
T/C (dose: 7.5 mg/kg/injection, schedule: Q01DX005 (ip), vehicle: saline with Tween-80): 120 % of control and 122 % of control

CN1CCC(O)(c2ccc(Br)cc2)C(C(=O)c2ccc(Br)cc2)C1 (stereo not drawn)
T/C [18]: 100 % of control
T/C [13]: 100 % of control
T/C [14]: 90 % of control and 91 % of control

CC(O)C(NC(=O)OC(C)(C)C)C(=O)O (stereo not drawn)
T/C [10]: 103 % of control
T/C [11]: 104 % of control
T/C [12]: 102 % of control

CCCCCCC(=O)Oc1ccc[nH]c1=O
T/C [1]: 104 % of control
T/C [2]: 100 % of control
T/C (dose: 100.0 mg/kg/injection, schedule: Q01DX009 (ip), vehicle: distilled water + Tween-80): 97 % of control
T/C [3]: 100 % of control
T/C (dose: 400.0 mg/kg/injection, schedule: Q01DX009 (ip), vehicle: distilled water + Tween-80): 100 % of control
